From patent publication US20220331303A1, “USE OF AN OREXIN 2 RECEPTOR AGONIST FOR THE TREATMENT OF EXCESSIVE SLEEPINESS” (Takeda Pharmaceutical Company Limited, priority 2019, published 2022)

Key:
[1] = tested on: sleep-deprived healthy volunteers; assay: Karolinska Sleepiness Scale (KSS) in sleep-deprived healthy volunteers; assay type: in vivo, human; conditions: for KSS Sleepy/Alert LS Mean / KSS Sleepy/Alert LS Mean Difference vs Placebo Estimate: M: Modafinil 300 mg
Experimental: (§1) During the day before dosing on Day 1, participants were administered the KSS at scheduled timepoints. A practice MWT session was performed on Day 1 treatment period 1 (only once during the entire study) to familiarize subjects with the procedures. Study drug was administered in the clinic in the evening on Day 1 of each treatment period. Subjects underwent the MWT and KSS at specified timepoints after the start of the infusion. Subjects were required to stay awake between the MWT tests. Following completion of the IV infusion on Day 2, subjects underwent an additional MWT test. When the final MWT test and cognitive testing were completed, subjects were allowed to sleep (recovery sleep) for approximately 6 hours. PSG recording was collected during this time. Subjects were discharged from the unit after completion on Day 2 with continuing actigraphy upon discharge (to begin on Day −6 before the next treatment period). The interval between each subsequent treatment period was at least 7 days to ensure that the subject's circadian rhythm had returned to a normal cycle. Subject's vital signs, including BP, were monitored during the dosing and testing period. Blood samples for determination of Compound A plasma concentrations were collected at specified timepoints on Days 1 and 2 of each treatment period. Subjects completed the Columbia-Suicide Severity Rating Scale (C-SSRS) during screening, before study drug administration, and before discharge on Day 2 of each treatment period.
Secondary endpoints: • PK parameters calculated from plasma concentrations of Compound A. • Scores for sleepiness on the Karolinska Sleepiness Scale (KSS).
The secondary efficacy endpoint was sleepiness/alertness as assessed by KSS at 14, 10, 6, and 2 hours predose (approximately between 7:45 AM to 7:45 PM); 2, 2.75, 4.75, 6.75, and 8.75 hours post infusion start (approximately between mid-night to 7 AM in the morning); and at 1.75 hours post infusion end. A higher value indicates more sleepiness, a lower value indicates more alertness. Prior to infusion, there were no statistically significant differences at any time point of observation in KSS score for Compound A 44 and 112 mg treatments when compared to placebo. […] On the average, for modafinil and Compound A 44 and 112 mg, there were about 1.6 to 3.7 points increase in the KSS postdose/the infusion start, relative to that prior to dosing during the daytime. However, for placebo, the increase in the average KSS is 4.9.

[2] = tested on: sleep-deprived healthy volunteers; assay: Safety/tolerability of a single dose in sleep-deprived healthy adults; assay type: in vivo, human; conditions: Modafinil 300 mg; moderate intensity
Experimental: as §1
Safety endpoints: adverse events (AEs), physical examinations, vital signs, 12-lead electrocardiograms (ECGs), clinical laboratory evaluations (hematology, blood chemistry, and urinalysis), drug-liking visual analogue scale, and Profile of Mood States.

[3] = DELTA: AVERAGE POST - AVERAGE PRIOR
[4] = Modafinil 300 mg, 1.75 HOURS POST INFUSION END
[5] = Modafinil 300 mg, 2 HOURS PREDOSE
[6] = Modafinil 300 mg, 2.75 HOURS POST INFUSION START
[7] = Modafinil 300 mg, 4.75 HOURS POST INFUSION START
[8] = Modafinil 300 mg, 6 HOURS PREDOSE
[9] = Modafinil 300 mg, 6.75 HOURS POST INFUSION START
[10] = Modafinil 300 mg, 8.75 HOURS POST INFUSION START
[11] = Modafinil 300 mg, 10 HOURS PREDOSE
[12] = Modafinil 300 mg, 14 HOURS PREDOSE

`NC(=O)C[S+]([O-])C(c1ccccc1)c1ccccc1` (stereo not shown) [Modafinil, modafinil, reference compound] was tested, and the “KSS Sleepy/Alert LS Mean” value ([1]; 1.75 HOURS POST INFUSION END) was 7.16, the “KSS Sleepy/Alert LS Mean Difference vs Placebo Estimate” value (“KSS Sleepy/Alert LS Mean Difference” for short) ([1]; 1.75 HOURS POST INFUSION END) was −0.99 and the “KSS Sleepy/Alert LS Mean” value ([1]; 2 HOURS PREDOSE) was 3.32. The “KSS Sleepy/Alert LS Mean Difference” value ([1]; 2 HOURS PREDOSE) was −0.58, the “KSS Sleepy/Alert LS Mean” value ([1]; 2.75 HOURS POST INFUSION START) was 3.69 and the “KSS Sleepy/Alert LS Mean Difference” value ([1]; 2.75 HOURS POST INFUSION START) was −3.16. The “KSS Sleepy/Alert LS Mean” value ([1]; 4.75 HOURS POST INFUSION START) was 4.32, the “KSS Sleepy/Alert LS Mean Difference” value ([1]; 4.75 HOURS POST INFUSION START) was −3.83 and the “KSS Sleepy/Alert LS Mean” value ([1]; 6 HOURS PREDOSE) was 2.58. The “KSS Sleepy/Alert LS Mean Difference” value ([1]; 6 HOURS PREDOSE) was −0.22, the “KSS Sleepy/Alert LS Mean” value ([1]; 6.75 HOURS POST INFUSION START) was 5.79 and the “KSS Sleepy/Alert LS Mean Difference” value ([1]; 6.75 HOURS POST INFUSION START) was −2.71. For the same molecule, the “KSS Sleepy/Alert LS Mean” value ([1]; 8.75 HOURS POST INFUSION START) was 6.69, the “KSS Sleepy/Alert LS Mean Difference” value ([1]; 8.75 HOURS POST INFUSION START) was −1.65 and the “KSS Sleepy/Alert LS Mean” value ([1]; 10 HOURS PREDOSE) was 2.32. The “KSS Sleepy/Alert LS Mean Difference” value ([1]; 10 HOURS PREDOSE) was −0.18, the “KSS Sleepy/Alert LS Mean” value ([1]; 14 HOURS PREDOSE) was 2.79 and the “KSS Sleepy/Alert LS Mean Difference” value ([1]; 14 HOURS PREDOSE) was −0.26. For the same molecule, the “KSS Sleepy/Alert LS Mean” value ([1]; AVERAGE POST INFUSION START (2.75, 4.75, 6.75 AND 8.75 HOURS)) was 5.12, the “KSS Sleepy/Alert LS Mean” value ([1]; AVERAGE PRIOR TO INFUSION START (14, 10, 6, 2 HOURS PREDOSE)) was 2.75 and the “KSS Sleepy/Alert LS Mean” value [1, 3] was 2.37. For the same molecule, the “KSS Sleepy/Alert LS Mean Difference” value [1, 3] was −2.53, the “Difference between average KSS score post and prior to infusion start, LS Mean (SE)” value ([1]; Modafinil 300 mg) was 2.37 (0.323) and the “KSS Max” value [1, 4] was 9. For the same molecule, the “KSS Mean (SD)” value [1, 4] was 7.2 (1.80), the “KSS Median” value [1, 4] was 8.0 and the “KSS Min” value [1, 4] was 3. For the same molecule, the “KSS Max” value [1, 5] was 6, the “KSS Mean (SD)” value [1, 5] was 3.3 (1.20) and the “KSS Median” value [1, 5] was 3.0. For the same molecule, the “KSS Min” value [1, 5] was 1, the “KSS Max” value [1, 6] was 6 and the “KSS Mean (SD)” value [1, 6] was 3.7 (1.63). The “KSS Median” value [1, 6] was 4.0, the “KSS Min” value [1, 6] was 1 and the “KSS Max” value [1, 7] was 7. The “KSS Mean (SD)” value [1, 7] was 4.3 (1.89), the “KSS Median” value [1, 7] was 4.0 and the “KSS Min” value [1, 7] was 1. The “KSS Max” value [1, 8] was 7, the “KSS Mean (SD)” value [1, 8] was 2.6 (1.35) and the “KSS Median” value [1, 8] was 2.0. The “KSS Min” value [1, 8] was 1, the “KSS Max” value [1, 9] was 8 and the “KSS Mean (SD)” value [1, 9] was 5.8 (2.12). For the same molecule, the “KSS Median” value [1, 9] was 6.0, the “KSS Min” value [1, 9] was 2 and the “KSS Max” value [1, 10] was 9. For the same molecule, the “KSS Mean (SD)” value [1, 10] was 6.7 (1.92), the “KSS Median” value [1, 10] was 7.0 and the “KSS Min” value [1, 10] was 3. The “KSS Max” value [1, 11] was 5, the “KSS Mean (SD)” value [1, 11] was 2.3 (1.11) and the “KSS Median” value [1, 11] was 2.0. For the same molecule, the “KSS Min” value [1, 11] was 1, the “KSS Max” value [1, 12] was 5 and the “KSS Mean (SD)” value [1, 12] was 2.8 (1.08). The “KSS Median” value [1, 12] was 3.0, the “KSS Min” value [1, 12] was 1 and the KSS score ([1]; Modafinil 300 mg, 1.75 hours post infusion end) was 7.16. For the same molecule, the “Drug-related TEAE of liver function test increased, number of subjects” value [2] was 1 subject.
